{"source": "paper PMC8802628", "about": "“Selective activation of PFKL suppresses the phagocytic oxidative burst” (Cell, 2021)", "key": {"[1]": {"system": "PMNs", "test": "ROS detection assay (ROS-Glo) in neutrophils", "type": "cell-based, human", "conditions": "over 2 h", "protocol": "ROS were measured using the ROS-Glo bioluminescent assay (Promega) for the direct detection of H2O2. Briefly, neutrophils (2 × 10^4) were plated in white 96-well plates (Greiner) in high glucose DMEM medium. Cells were cultured with DMSO vehicle, 0.5 μM NA-11, 5 μM LDC7559, 100 μM apocynin, or 200 μM thionicotinamide for 30 min, and then stimulated with 50 nM PMA or treated with 10 μg/mL zymosan beads, pre-opsonized in 20% serum for 30 min. Luminescence, after the addition of H2O2 substrate solution of 20 min, and then ROS-Glo detection solution for 20 min, was recorded on a plate reader (Envision)."}, "[2]": {"system": "E. coli", "test": "Phagocytosis assay: E. coli C.F.U. recovered from PMNs", "type": "cell-based, human", "conditions": "neutrophils pretreated 30 min", "protocol": "Neutrophils (1 × 10^6) were cultured in 6-well tissue in RPMI medium containing DMSO vehicle, 0.5 μM NA-11, 0.5 μM NA-4, 100 μM Apocynin or 100 μM thionicotinamide (TN) for 30 min. E. coli grown in LB broth overnight (2 mL) were opsonized with human serum (1 mL pooled from three donors) for 1 h at room temperature. Opsonized bacteria were washed with PBS, resuspended in LB broth to an OD600of 0.1 and then added to cultured neutrophils at an MOI of 1 for 30 min. Cells were washed with medium three times and then cultured with 300 μg/mL gentamicin for 2 h to kill any extracellular bacteria. Cells were then washed again, twice with medium and once with PBS. To release phagocytosed bacteria, neutrophils were lysed in 0.05% saponin in PBS. Lysates were passed through a 25’ gauge needed several times and the number of viable phagocytosed bacteria was determined by colony counting."}, "[3]": {"system": "PMNs", "test": "Phagocytosis of zymosan particles by PMNs", "type": "cell-based, human", "conditions": "neutrophils, zymosan 2 h", "protocol": "Figure S7. NA-11 activates PFKL to prevent the oxidative burst and impair neutrophil defenses, related to Figures 4 and 6\n(A) PFK1 activity in PMN lysates. Cells were pretreated with 0.5 mM NA-11, 5 mM LDC7559, 100 mM apocynin, 200 mM thionicotinamid e (TN), 1 mM MEK inhibitor U0126, or DMSO vehicle for 30 min, or 1 mM proteasome inhibitor bortezomib for 1 h, and then activated with 50 nM PMA for 30 min where indicated. Bars represent the mean ± s.d. of cells from 3 donors. (B) NADH:NAD+ ratio in PMA-activated PMNs. Cells were pretreated with 0.5 mM NA-11 or DMSO vehicle for 30 min, and then activated with 50 nM PMA for 30 min. Data are the mean ± s.d. of cells from 3 donors. (C) Immunolabeling of citrullinated histone H3 (magenta) and myeloperoxidase (red) in PMNs pretreated with 0.5 mM NA-11 or DMSO vehicle for 30 min and then stimulated for 4 h with 50 nM PMA, 10 mg/mL extracellular LPS, 0.5 mg/mL cholesterol crystals, or 25 mM nigericin. Chromatin is stained green. Scale bar, […]. Results are representative of 3 independent experiments.\n(D) Fluorescence micrographs of PMNs pretreated with 0.5 mM NA-11, 200 mM thionicotinamide (TN), 0.5 mM NA-4, or DMSO vehicle for 30 min, and then incubated with serum-opsonized Texas Red-conjugated zymosan particles (10 mg/mL) for 2 h. […]"}, "[4]": {"substrate": "O=C(CO)[C@@H](O)[C@H](O)[C@H](O)COP(=O)(O)O", "test": "Recombinant PFKL3Mut activity assay", "type": "biochemical, human", "conditions": "other: PFKL3Mut, pH 7.5, 225 μM ATP, 25.0 °C", "description": "(§1) Recombinant N-terminal His-tagged human PFKL (NP_002617), PFKM (NP_000280), and PFKP (NM_002627.4) were generated as described ([Webb et al., 2015], [2017]). Point mutants of PFK1 were generated using the QuikChange Lightning kit (Aligent).\n(§2) His-tagged PFK1 was expressed and purified as described with slight modifications ([Webb et al., 2015], [2017]). Briefly, baculovirus was generated using the Bac-to-Bac Expression system (Invitrogen). PFK1 was expressed in 2-5 × 10^6 sf9 cells at a multiplicity of infection of two for 48 h. […] Protein was quantified using a Bradford Protein Assay kit (ThermoFisher Scientific), and aliquotes frozen in liquid nitrogen for storage at −80°C.\n(§3) PFK1 activity was determined using the rate of FBP production via an auxiliary enzyme assay adapted to a 96-well format ([Brüser et al., 2012]; [Webb et al., 2015]). […] For assays containing FBP, the rate of ADP production was determined using the auxiliary enzymes pyruvate kinase (PK) and lactate dehydrogenase (LDH) (MilliporeSigma) in a buffer containing 250 μM phosphoenolpyruvic acid, […] NADH, 50 mM HEPES pH 7.5, 100 mM KCl, 1 mM DTT, and effector concentrations as described in the text. […] Absorbance at 340 nm was measured using a Varioskan LUX Multimode microplate reader (ThermoFisher). […]"}, "[5]": {"substrate": "O=C(CO)[C@@H](O)[C@H](O)[C@H](O)COP(=O)(O)O", "test": "Recombinant PFKM activity assay", "type": "biochemical, human", "conditions": "other: PFKM wild type, pH 7.0, 250 μM ATP, 25.0 °C", "description": "as §1, §2, §3"}, "[6]": {"substrate": "O=C(CO)[C@@H](O)[C@H](O)[C@H](O)COP(=O)(O)O", "test": "Recombinant PFKM+pocket activity assay", "type": "biochemical, human", "conditions": "other: PFKM+pocket, pH 7.0, 250 μM ATP, 25.0 °C", "description": "as §1, §2, §3"}}}
{"molecule": "NC(=S)c1cccnc1", "note": "[TN, thionicotinamide, reference compound]", "values": [{"measurement": "ROS production during phagocytosis of opsonized zymosan", "setting": "[1]", "value": "kept ROS production at basal levels"}, {"measurement": "killing of phagocytosed bacteria (bacterial colonies recovered)", "setting": "[2]", "value": "less efficient killers of phagocytosed bacteria"}, {"measurement": "phagocytosis (intracellular zymosan particles)", "setting": "[3]", "value": "neither NA-11 nor TN affected phagocytosis"}]}
{"molecule": "PFKL (K315R, V545L, and V582M), PFKL3Mut (Homo sapiens; K315R/V545L/V582M) (protein, made in house; host or cells: Sf9 insect cells (baculovirus)) MAAVDLEKLRASGAGKAIGVLTSGGDAQGMNAAVRAVTRMGIYVGAKVFLIYEGYEGLVEGGENIKQANWLSVSNIIQLGGTIIGSARCKAFTTREGRRAAAYNLVQHGITNLCVIGGDGSLTGANIFRSEWGSLLEELVAEGKISETTARTYSHLNIAGLVGSIDNDFCGTDMTIGTDSALHRIMEVIDAITTTAQSHQRTFVLEVMGRHCGYLALVSALASGADWLFIPEAPPEDGWENFMCERLGETRSRGSRLNIIIIAEGAIDRNGKPISSSYVKDLVVQRLGFDTRVTVLGHVQRGGTPSAFDRILSSRMGMEAVMALLEATPDTPACVVTLSGNQSVRLPLMECVQMTKEVQKAMDDKRFDEATQLRGGSFENNWNIYKLLAHQKPPKEKSNFSLAILNVGAPAAGMNAAVRSAVRTGISHGHTVYVVHDGFEGLAKGQVQEVGWHDVAGWLGRGGSMLGTKRTLPKGQLESIVENIRIYGIHALLVVGGFEAYEGVLQLVEARGRYEELCIVMCVIPATISNNVPGTDFSLGSDTALNAAMESCDRIKQSASGTKRRVFIVETMGGYCGYLATMTGIAVGADAAYVFEDPFNIHDLKVNVEHMTEKMKTDIQRGLVLRNEKCHDYYTTEFLYNLYSSEGKGVFDCRTNVLGHLQQGGAPTPFDRNYGTKLGVKAMLWLSEKLREVYRKGRVFANAPDSACVIGLKKKAVAFSPVTELKKDTDFEHRMPREQWWLSLRLMLKMLAQYRISMAAYVSGELEHVTRRTLSMDKGF", "values": [{"measurement": "Km", "setting": "[4]", "value": "570 ± 60", "unit": "µM"}]}
{"molecule": "human PFKM (Homo sapiens) (protein, made in house; host or cells: Sf9 insect cells (baculovirus)) MTHEEHHAAKTLGIGKAIAVLTSGGDAQGMNAAVRAVVRVGIFTGARVFFVHEGYQGLVDGGDHIKEATWESVSMMLQLGGTVIGSARCKDFREREGRLRAAYNLVKRGITNLCVIGGDGSLTGADTFRSEWSDLLSDLQKAGKITDEEATKSSYLNIVGLVGSIDNDFCGTDMTIGTDSALHRIMEIVDAITTTAQSHQRTFVLEVMGRHCGYLALVTSLSCGADWVFIPECPPDDDWEEHLCRRLSETRTRGSRLNIIIVAEGAIDKNGKPITSEDIKNLVVKRLGYDTRVTVLGHVQRGGTPSAFDRILGSRMGVEAVMALLEGTPDTPACVVSLSGNQAVRLPLMECVQVTKDVTKAMDEKKFDEALKLRGRSFMNNWEVYKLLAHVRPPVSKSGSHTVAVMNVGAPAAGMNAAVRSTVRIGLIQGNRVLVVHDGFEGLAKGQIEEAGWSYVGGWTGQGGSKLGTKRTLPKKSFEQISANITKFNIQGLVIIGGFEAYTGGLELMEGRKQFDELCIPFVVIPATVSNNVPGSDFSVGADTALNTICTTCDRIKQSAAGTKRRVFIIETMGGYCGYLATMAGLAAGADAAYIFEEPFTIRDLQANVEHLVQKMKTTVKRGLVLRNEKCNENYTTDFIFNLYSEEGKGIFDSRKNVLGHMQQGGSPTPFDRNFATKMGAKAMNWMSGKIKESYRNGRIFANTPDSGCVLGMRKRALVFQPVAELKDQTDFEHRIPKEQWWLKLRPILKILAKYEIDLDTSDHAHLEHITRKRSGEAAV", "values": [{"measurement": "Km", "setting": "[5]", "value": "610 ± 50", "unit": "µM"}]}
{"molecule": "PFKM+pocket (R315 to lysine) (Homo sapiens; R315K) (protein, made in house; host or cells: Sf9 insect cells (baculovirus)) MTHEEHHAAKTLGIGKAIAVLTSGGDAQGMNAAVRAVVRVGIFTGARVFFVHEGYQGLVDGGDHIKEATWESVSMMLQLGGTVIGSARCKDFREREGRLRAAYNLVKRGITNLCVIGGDGSLTGADTFRSEWSDLLSDLQKAGKITDEEATKSSYLNIVGLVGSIDNDFCGTDMTIGTDSALHRIMEIVDAITTTAQSHQRTFVLEVMGRHCGYLALVTSLSCGADWVFIPECPPDDDWEEHLCRRLSETRTRGSRLNIIIVAEGAIDKNGKPITSEDIKNLVVKRLGYDTRVTVLGHVQRGGTPSAFDRILGSKMGVEAVMALLEGTPDTPACVVSLSGNQAVRLPLMECVQVTKDVTKAMDEKKFDEALKLRGRSFMNNWEVYKLLAHVRPPVSKSGSHTVAVMNVGAPAAGMNAAVRSTVRIGLIQGNRVLVVHDGFEGLAKGQIEEAGWSYVGGWTGQGGSKLGTKRTLPKKSFEQISANITKFNIQGLVIIGGFEAYTGGLELMEGRKQFDELCIPFVVIPATVSNNVPGSDFSVGADTALNTICTTCDRIKQSAAGTKRRVFIIETMGGYCGYLATMAGLAAGADAAYIFEEPFTIRDLQANVEHLVQKMKTTVKRGLVLRNEKCNENYTTDFIFNLYSEEGKGIFDSRKNVLGHMQQGGSPTPFDRNFATKMGAKAMNWMSGKIKESYRNGRIFANTPDSGCVLGMRKRALVFQPVAELKDQTDFEHRIPKEQWWLKLRPILKILAKYEIDLDTSDHAHLEHITRKRSGEAAV", "values": [{"measurement": "Km", "setting": "[6]", "value": "1410 ± 80", "unit": "µM"}]}
